# Target: T1, hROMK (hKir1.1) (Homo sapiens, UniProt P48048)
# T1 construct: expressed in transfected cells
# T1 sequence (P48048 1-391): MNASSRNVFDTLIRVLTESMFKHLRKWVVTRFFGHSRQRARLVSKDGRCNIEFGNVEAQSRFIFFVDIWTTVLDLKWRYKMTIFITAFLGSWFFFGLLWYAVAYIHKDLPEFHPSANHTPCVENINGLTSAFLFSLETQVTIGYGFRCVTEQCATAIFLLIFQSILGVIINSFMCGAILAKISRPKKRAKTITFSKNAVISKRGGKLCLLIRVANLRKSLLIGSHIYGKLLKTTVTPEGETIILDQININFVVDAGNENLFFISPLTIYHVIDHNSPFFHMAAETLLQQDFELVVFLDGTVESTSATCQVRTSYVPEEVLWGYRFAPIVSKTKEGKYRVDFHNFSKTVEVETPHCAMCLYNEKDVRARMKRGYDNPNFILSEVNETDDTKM
# Test: Thallium Flux Assay
# Type: cell-based
# Conditions: HEK293 cells stably expressing hROMK (hKir1.1), FLIPR-Tetra; read-out: Thallium Flux IC50
# In short: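 HEK293 cells stably expressing hROMK, loaded with FluxOR dye 90 min at ambient temperature, then compound 30 min with 0.3 mM ouabain in probenecid buffer pH 7.4.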
row,Compound,IC50
1,"O=C1OCCc2cc([C@@H]3CN4CCN(C(=O)Cc5cnc(-n6cnnn6)cn5)C[C@H]4CO3)ccc21 [Example 80, 6-[(3R,9aS)-8-{[5-(1H-tetrazol-1-yl)pyrazin-2-yl]acetyl}octahydropyrazino[2,1-c][1,4]oxazin-3-yl]-3,4-dihydro-1H-isochromen-1-one]",500 nM
2,"N#Cc1cc([C@@H]2CN3CCN(C(=O)Cc4ccc(-n5cnnn5)cn4)C[C@H]3CO2)c(F)cc1F [Example 82, 2,4-difluoro-5-[(3R,9aS)-8-{[5-(1H-tetrazol-1-yl)pyridin-2-yl]acetyl}octahydropyrazino[2,1-c][1,4]oxazin-3-yl]benzonitrile]",340 nM
3,N#Cc1c(F)ccc([C@H]2CN3CCN(C(=O)Cc4ccc(-n5cnnn5)cn4)C[C@H]3CO2)c1F [Example 86],290 nM
4,"Cc1c([C@@H]2CN3CCN(C(=O)Cc4cccc(-n5cnnn5)n4)C[C@H]3CO2)ccc(F)c1C#N [Example 98, 6-fluoro-2-methyl-3-[(3R,9aS)-8-{[6-(1H-tetrazol-1-yl)pyridin-2-yl]acetyl}octahydropyrazino[2,1-c][1,4]oxazin-3-yl]benzonitrile]",560 nM
5,"Cc1c([C@@H]2CN3CCN(C(=O)Cc4ccnc(-n5cnnn5)c4)C[C@H]3CO2)ccc(F)c1C#N [Example 99, 6-fluoro-2-methyl-3-[(3R,9aS)-8-{[2-(1H-tetrazol-1-yl)pyridin-4-yl]acetyl}octahydropyrazino[2,1-c][1,4]oxazin-3-yl]benzonitrile]",340 nM
6,Cc1c([C@H]2CN3CCN(C(=O)Cc4ccnc(-n5cnnn5)c4)C[C@H]3CO2)ccc(F)c1C#N [Example 100],190 nM
7,"Cc1c([C@H]2CN3CCN(C(=O)Cc4cncc(-n5cnnn5)c4)C[C@H]3CO2)ccc(F)c1C#N [Example 101, 6-fluoro-2-methyl-3-[(3S,9aS)-8-{[5-(1H-tetrazol-1-yl)pyridin-3-y]acetyl}octahydropyrazino[2,1-c][1,4]oxazin-3-yl]benzonitrile]",180 nM
8,"O=C(Cc1ccc(-n2cnnn2)nc1)N1CCN2C[C@@H](c3cccc(-n4cnnn4)c3)OC[C@@H]2C1 [Example 103, (3R,9aS)-3-[3-(1H-tetrazol-1-yl)phenyl]-8-{[6-(1H-tetrazol-1-vl)pvridin-3-yl]acetyl}octahydropyrazino[2,1-c][1,4]oxazine]",340 nM
9,"Cc1c([C@@H]2CN3CCN(C(=O)Cc4ccc(-n5cnnn5)nc4)C[C@H]3CO2)cccc1-n1cnnn1 [Example 104, (3R,9aS)-3-[2-methyl-3-(1H-tetrazol-1-yl)phenyl]-8-{[6-(1H-tetrazol-1-yl)pyridin-3-yl]acetyl}octahydropyrazino[2,1-c][1,4]oxazine]",480 nM
10,"C[C@@H]1Cc2cc([C@]3(C)CN4CCN(C(=O)Cc5ccc(-n6cnnn6)nc5)C[C@H]4CO3)ccc2C(=O)O1 [Example 105, (3R)-3-methyl-6-[(3R,9a,S)-3-methyl-8-{[6-(1H-tetrazol-1-vl)pvridin-3-yl]acetyl}octahydropyrazino[2,1-c][1,4]oxazin-3-yl]-3,4-dihydro-1H-isochromen-1-one]",350 nM
11,"C[C@H]1Cc2cc([C@]3(C)CN4CCN(C(=O)Cc5ccc(-n6cnnn6)nc5)C[C@H]4CO3)ccc2C(=O)O1 [Example 106, (3S)-3-methyl-6-[(3R,9aS)-3-methyl-8-{[6-(1H-tetrazol-1-yl)pyridin-3-yl]acetyl}octahydropyrazino[2,1-c][1,4]oxazin-3-yl]-3,4-dihydro-1H-isochromen-1-one]",420 nM
12,"N#Cc1c(F)cc([C@@H]2CN3CCN(C(=O)Cc4ccc(-n5cnnn5)nc4)C[C@@H]3CO2)cc1F [Example 107, 2,6-difluoro-4-[(3R,9aR)-8-{[6-(1H-tetrazol-1-yl)pyridin-3-yl]acetyl}octahydropyrazino[2,1-c][1,4]oxazin-3-yl]benzonitrile]",170 nM
13,"N#Cc1c(F)cc([C@H]2CN3CCN(C(=O)Cc4ccc(-n5cnnn5)nc4)C[C@@H]3CO2)cc1F [Example 108, 2,6-difluoro-4-[(3S,9aR)-8-{[6-(1H-tetrazol-1-yl)pyridin-3-yl]acetyl}octahydropyrazino[2,1-c][1,4]oxazin-3-yl]benzonitrile]",490 nM
14,"N#Cc1c(F)cc([C@H]2CN3CCN(C(=O)Cc4ccc(-n5cnnn5)nc4)C[C@H]3CO2)cc1F [Example 109, 2,6-difluoro-4-[(3S,9aS)-8-{[6-(1H-tetrazol-1-yl)pyridin-3-yl]acetyl}octahydropyrazino[2,1-c][1,4]oxazin-3-yl]benzonitrile]",190 nM
15,"N#Cc1c(F)cc([C@@H]2CN3CCN(C(=O)Cc4ccc(-n5cnnn5)nc4)C[C@H]3CO2)cc1F [Example 110, 2,6-difluoro-4-[(3R,9aS)-8-{[6-(1H-tetrazol-1-yl)pyridin-3-yl]acetyl}octahydropyrazino[2,1-c][1,4]oxazin-3-yl]benzonitrile]",370 nM
16,"COc1cc([C@@H]2CN3CCN(C(=O)Cc4ccc(-n5cnnn5)nc4)C[C@@H]3CO2)cc(F)c1C#N [Example 111, 2-fluoro-6-methoxy-4-[(3R,9aR)-8-{[6-(1H-tetrazol-1-vl)pvridin-3-yl]acetyl}octahydropyrazino[2,1-c][1,4]oxazin-3-yl]benzonitrile]",170 nM
17,"COc1cc([C@H]2CN3CCN(C(=O)Cc4ccc(-n5cnnn5)nc4)C[C@@H]3CO2)cc(F)c1C#N [Example 112, 2-fluoro-6-methoxy-4-[(3S,9aR)-8-{[6-(1H-tetrazol-1-vl)pvridin-3-yl]acetyl}octahydropyrazino[2,1-c][1,4]oxazin-3-yl]benzonitrile]",220 nM

# Same assay, conditions: Thallium Flux IC50
row,Compound,IC50
1,"N#Cc1cc([C@@H]2CN3CCN(C(=O)Cc4ccc(-n5cnnn5)nc4)C[C@H]3CO2)c(F)cc1F [Example 81, 2,4-difluoro-5-[(3R,9aS)-8-{[6-(1H-tetrazol-1-yl)pyridin-3-yl]acetyl}octahydropyrazino[2,1-c][1,4]oxazin-3-yl]benzonitrile]",160 nM
2,Cc1c([C@H]2CN3CCN(C(=O)Cc4cnc(-n5cnnn5)cn4)C[C@H]3CO2)ccc2c1COC2=O [Example 83],160 nM
3,"Cc1cc(-n2cnnn2)cnc1CC(=O)N1CCN2C[C@@H](c3ccc(F)c(C#N)c3C)OC[C@@H]2C1 [Example 84, 6-fluoro-2-methyl-3-[(3R,9aS)-8-{[3-methyl-5-(1H-tetrazol-1-vl)pvridin-2-yl]acetyl}octahydropyrazino[2,1-c][1,4]oxazin-3-yl]benzonitrile]",230 nM
4,"Cc1cc(-n2cnnn2)cnc1CC(=O)N1CCN2C[C@H](c3ccc(F)c(C#N)c3C)OC[C@@H]2C1 [Example 85, 6-fluoro-2-methyl-3-[(3S,9aS)-8-{[3-methyl-5-(1H-tetrazol-1-vl)pvridin-2-yl]acetyl}octahydropyrazino[2,1-c][1,4]oxazin-3-yl]benzonitrile]",240 nM
5,"N#Cc1c(F)ccc([C@H]2CN3CCN(C(=O)Cc4ccc(-n5cnnn5)nc4)C[C@@H]3CO2)c1F [Example 87, 2,6-difluoro-3-[(3S,9aR)-8-{[6-(1H-tetrazol-1-yl)pyridin-3-yl]acetyl}octahydropyrazino[2,1-c][1,4]oxazin-3-yl]benzonitrile]",220 nM
6,"N#Cc1c(F)ccc([C@@H]2CN3CCN(C(=O)Cc4ccc(-n5cnnn5)nc4)C[C@@H]3CO2)c1F [Example 88, 2,6-difluoro-3-[(3R,9aR)-8-{[6-(1H-tetrazol-1-yl)pyridin-3-yl]acetyl}octahydropyrazino[2,1-c][1,4]oxazin-3-yl]benzonitrile]",90 nM
7,"Cc1c(C#N)cccc1[C@H]1CN2CCN(C(=O)Cc3ccc(-n4cnnn4)nc3)C[C@H]2CO1 [Example 90, 2-methyl-3-[(3S,9aS)-8-{[6-(1H-tetrazol-1-yl)pyridin-3-yl]acetyl}octahydropyrazino[2,1-c][1,4]oxazin-3-yl]benzonitrile]",130 nM
8,"Cc1c(C#N)cccc1[C@@H]1CN2CCN(C(=O)Cc3ccc(-n4cnnn4)nc3)C[C@H]2CO1 [Example 91, 2-methyl-3-[(3R,9aS)-8-{[6-(1H-tetrazol-1-yl)pyridin-3-yl]acetyl}octahydropyrazino[2,1-c][1,4]oxazin-3-yl]benzonitrile]",60 nM
9,"Cc1nc(-n2cnnn2)ccc1CC(=O)N1CCN2C[C@H](c3cccc(C#N)c3C)OC[C@@H]2C1 [Example 92, 2-methyl-3-[(3S,9aS)-8-{[2-methyl-6-(1H-tetrazol-1-yl)pyridin-3-yl]acetyl}octahydropyrazino[2,1-c][1,4]oxazin-3-yl]benzonitrile]",200 nM
10,"Cc1c([C@H]2CN3CCN(C(=O)Cc4cccc(-n5cnnn5)n4)C[C@H]3CO2)ccc(F)c1C#N [Example 97, 6-fluoro-2-methyl-3-[(3S,9aS)-8-{[6-(1H-tetrazol-1-yl)pyridin-2-yl]acetyl}octahydropyrazino[2,1-c][1,4]oxazin-3-yl]benzonitrile]",250 nM
11,"Cc1c([C@@H]2CN3CCN(C(=O)Cc4ccc(-n5cnnn5)nc4)C[C@@H]3CO2)ccc(F)c1C#N [Example 102, 6-fluoro-2-methyl-3-[(3R,9aR)-8-{[6-(1H-tetrazol-1-yl)pyridin-3-yl]acetyl}octahydropyrazino[2,1-c][1,4]oxazin-3-yl]benzonitrile]",150 nM
